Laboratory results: US20050208496A1, “Methods of testing for bronchial asthma or chronic obstructive pulmonary disease” (Genox Research, Inc., priority 2002, published 2005)
Read-outs that look alike come from different tables or passages of the source.

Test system: respiratory epithelial cells
Settings: for expression level change, AQP5 (Probe ID 91275_at) / expression level change, ESTs AI758223 (Probe ID 76769_at) / expression level change, ESTs AI927079 (Probe ID 88716_at) / expression level change, MGC14128 (Probe ID 89360_at) / expression level change, PADI1 (Probe ID 81926_at) / expression level change, ST6GalNAcI (Probe ID 89741_at) / expression level change, CNTN1 (Probe ID 88239_i_at) / expression level change, DKFZP434I1735 (Probe ID 77516_r_at) / expression level change, FLJ10718 (Probe ID 69750_at) / expression level change, LGALS1 (Probe ID 80667_f_at) / expression level change, MGC14128 (Probe ID 86024_at): IL-13 stimulation
[1] = IL-13 vs no stimulation, lot 1 Day 3 AI
[2] = IL-13 vs no stimulation, lot 1 Day 3 IMM

Q: What does the source list for “IL-13: human IL-13 (Peprotech, Inc.) added to the medium at 50 ng/mL to stimulate respiratory epithelial cells”?
A: SLC21A12 (87860_s_at) expression change upon IL-13 stimulation (HG-U95E, lot 2, Day 7): 2.8; rab11-FIP1 (89338_at) expression change upon IL-13 stimulation (HG-U95E, lot 2, Day 7): 14.6; AA199856 (72960_s_at) expression change upon IL-13 stimulation (HG-U95E, lot 2, Day 7, AI): 5.5; AA806114 (80826_at) expression change upon IL-13 stimulation (HG-U95E, lot 2, Day 7, AI): 2; AI803648 (89255_at) expression change upon IL-13 stimulation (HG-U95E, lot 2, Day 7, AI): 2.4; AI859144, KIAA1127 (77546_at) expression change upon IL-13 stimulation (HG-U95E, lot 2, Day 7, AI): 9.8; AI984061 (89834_at) expression change upon IL-13 stimulation (HG-U95E, lot 2, Day 7, AI): 3.1; AW024819 (72867_at) expression change upon IL-13 stimulation (HG-U95E, lot 2, Day 7, AI): 2.3; BAL (69619_at) expression change upon IL-13 stimulation (HG-U95E, lot 2, Day 7, AI): 2.4; BCAT1 (72962_at) expression change upon IL-13 stimulation (HG-U95E, lot 2, Day 7, AI): 3.7; CLDN1 (77660_at) expression change upon IL-13 stimulation (HG-U95E, lot 2, Day 7, AI): 5.4; EHF (8S090_at) expression change upon IL-13 stimulation (HG-U95E, lot 2, Day 7, AI): 3; EHF (85092_g_at) expression change upon IL-13 stimulation (HG-U95E, lot 2, Day 7, AI): 7; EPPK1 (86507_at) expression change upon IL-13 stimulation (HG-U95E, lot 2, Day 7, AI): 3.2; FLJ20281 (83376_at) expression change upon IL-13 stimulation (HG-U95E, lot 2, Day 7, AI): 2.6; FLJ20989 (91420_at) expression change upon IL-13 stimulation (HG-U95E, lot 2, Day 7, AI): 2.1; FLJ21415 (89902_at) expression change upon IL-13 stimulation (HG-U95E, lot 2, Day 7, AI): 2.7; FLJ22833 (67329_at) expression change upon IL-13 stimulation (HG-U95E, lot 2, Day 7, AI): 4.2; GCNT3 (77751_at) expression change upon IL-13 stimulation (HG-U95E, lot 2, Day 7, AI): 2; KIAA1685 (83541_at) expression change upon IL-13 stimulation (HG-U95E, lot 2, Day 7, AI): 2; MASL1 (89651_at) expression change upon IL-13 stimulation (HG-U95E, lot 2, Day 7, AI): 4.2; MFHAS1 (87816_g_at) expression change upon IL-13 stimulation (HG-U95E, lot 2, Day 7, AI): 2.7; RIG-1 (77749_at) expression change upon IL-13 stimulation (HG-U95E, lot 2, Day 7, AI): 2.3; SCYA26 (90189_at) expression change upon IL-13 stimulation (HG-U95E, lot 2, Day 7, AI): 29.8; expression level change, AQP5 (Probe ID 91275_at) (lot 1, Day 3, AI): −7.7; expression level change, ESTs AI758223 (Probe ID 76769_at) (lot 1, Day 3, AI): −3.6; expression level change, ESTs AI927079 (Probe ID 88716_at) (lot 1, Day 3, AI): −2.7; expression level change, MGC14128 (Probe ID 89360_at) (lot 1, Day 3, AI): −2.1; expression level change, PADI1 (Probe ID 81926_at) (lot 1, Day 3, AI): −6.1; expression level change, ST6GalNAcI (Probe ID 89741_at) (lot 1, Day 3, AI): −2.5; expression level change, AQP5 (Probe ID 91275_at) (lot 1, Day 3, IMM): −3.8; expression level change, ESTs AI758223 (Probe ID 76769_at) (lot 1, Day 3, IMM): −2.1; expression level change, MGC14128 (Probe ID 89360_at) (lot 1, Day 3, IMM): −2.6; expression level change, AQP5 (Probe ID 91275_at) (lot 1, Day 7, AI): −3.7; expression level change, CNTN1 (Probe ID 88239_i_at) (lot 1, Day 7, AI): −2; expression level change, DKFZP434I1735 (Probe ID 77516_r_at) (lot 1, Day 7, AI): −2; expression level change, ESTs AI758223 (Probe ID 76769_at) (lot 1, Day 7, AI): −14.8; expression level change, ESTs AI927079 (Probe ID 88716_at) (lot 1, Day 7, AI): −12.9; expression level change, FLJ10718 (Probe ID 69750_at) (lot 1, Day 7, AI): −3; expression level change, LGALS1 (Probe ID 80667_f_at) (lot 1, Day 7, AI): −7.2; expression level change, MGC14128 (Probe ID 86024_at) (lot 1, Day 7, AI): −4; expression level change, MGC14128 (Probe ID 89360_at) (lot 1, Day 7, AI): −3.8; expression level change, PADI1 (Probe ID 81926_at) (lot 1, Day 7, AI): −6.1; expression level change, ST6GalNAcI (Probe ID 89741_at) (lot 1, Day 7, AI): −2.4; expression level change, CNTN1 (Probe ID 88239_i_at) (lot 1, Day 7, IMM): −2.7; expression level change, ESTs AI758223 (Probe ID 76769_at) (lot 1, Day 7, IMM): −15.7; expression level change, ESTs AI927079 (Probe ID 88716_at) (lot 1, Day 7, IMM): −10.7; expression level change, FLJ10718 (Probe ID 69750_at) (lot 1, Day 7, IMM): −4.7; expression level change, LGALS1 (Probe ID 80667_f_at) (lot 1, Day 7, IMM): −5.2; expression level change, MGC14128 (Probe ID 86024_at) (lot 1, Day 7, IMM): −2.9; expression level change, MGC14128 (Probe ID 89360_at) (lot 1, Day 7, IMM): −2.9; expression level change, PADI1 (Probe ID 81926_at) (lot 1, Day 7, IMM): −7.6; expression level change, ST6GalNAcI (Probe ID 89741_at) (lot 1, Day 7, IMM): −4.3; expression level change, AQP5 (Probe ID 91275_at) (lot 2, Day 3, AI): −14.3; expression level change, CNTN1 (Probe ID 88239_i_at) (lot 2, Day 3, AI): −3.8; expression level change, ESTs AI758223 (Probe ID 76769_at) (lot 2, Day 3, AI): −9.6; expression level change, ESTs AI927079 (Probe ID 88716_at) (lot 2, Day 3, AI): −7; expression level change, LGALS1 (Probe ID 80667_f_at) (lot 2, Day 3, AI): −2.5; expression level change, MGC14128 (Probe ID 86024_at) (lot 2, Day 3, AI): −2.4; expression level change, PADI1 (Probe ID 81926_at) (lot 2, Day 3, AI): −6.7; expression level change, ST6GalNAcI (Probe ID 89741_at) (lot 2, Day 3, AI): −8.8; expression level change, AQP5 (Probe ID 91275_at) (lot 2, Day 7, AI): −7.7; expression level change, CNTN1 (Probe ID 88239_i_at) (lot 2, Day 7, AI): −3.3; expression level change, DKFZP434I1735 (Probe ID 77516_r_at) (lot 2, Day 7, AI): −2.7; expression level change, ESTs AI927079 (Probe ID 88716_at) (lot 2, Day 7, AI): −18.5; expression level change, FLJ10718 (Probe ID 69750_at) (lot 2, Day 7, AI): −3.6; expression level change, LGALS1 (Probe ID 80667_f_at) (lot 2, Day 7, AI): −8.2; expression level change, MGC14128 (Probe ID 86024_at) (lot 2, Day 7, AI): −2.8; expression level change, MGC14128 (Probe ID 89360_at) (lot 2, Day 7, AI): −4; expression level change, PADI1 (Probe ID 81926_at) (lot 2, Day 7, AI): −6.8; expression level change, ST6GalNAcI (Probe ID 89741_at) (lot 2, Day 7, AI): −8.4; AKR1B10 (37482_at) expression change [1]: −6.5; AKR1C3 (37399_at) expression change [1]: −3.3; AREG (34898_at) expression change [1]: −2.3; BDKRB2 (39310_at) expression change [1]: −2.1; BENE (33331_at) expression change [1]: −3.7; CTSL2 (40717_at) expression change [1]: −2.8; DUSP1 (1005_at) expression change [1]: −2.8; GABRE (34280_at) expression change [1]: −2; GPNMB (38379_at) expression change [1]: −3.3; IGFBP3 (1586_at) expression change [1]: −2.4; IGFBP3 (37319_at) expression change [1]: −2.7; IGFBP6 (1736_at) expression change [1]: −3.6; IMPA2 (36496_at) expression change [1]: −2.8; LOH11CR2A (38151_at) expression change [1]: −2.1; MMP9 (31859_at) expression change [1]: −25.5; MMP10 (1006_at) expression change [1]: −6.3; MSMB (32149_at) expression change [1]: −8.6; NDRG1 (36933_at) expression change [1]: −4.9; NOTCH3 (38750_at) expression change [1]: −2.9; PFTK1 (36502_at) expression change [1]: −3.9; PSCA (33792_at) expression change [1]: −6; RARRES1 (1042_at) expression change [1]: −3.1; RARRES1 (33505_at) expression change [1]: −2.2; RDC1 (34288_at) expression change [1]: −4.1; S100A8 (41096_at) expression change [1]: −5.4; SEC14L2 (32817_at) expression change [1]: −2.1; SERPINB5 (862_at) expression change [1]: −2.2; SERPINE1 (672_at) expression change [1]: −12; SERPINE1 (38125_at) expression change [1]: −6.9; STK39 (39120_at) expression change [1]: −3.9; c-fos (1915_s_at) expression change [1]: −2; c-fos (1916_s_at) expression change [1]: −2.2; AKR1B10 (37482_at) expression change [2]: −2.8; APM2 (32527_at) expression change [2]: −2.1; AREG (34898_at) expression change [2]: −4.2
